Data published in PubChem BioAssay (NCI).
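Test compounds were applied to cells in 96-well plates for 48 hours at 5 doses. TGI denotes the concentration required for complete inhibition of growth.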

What was measured:
Test in all cases: NCI tumour cell line growth inhibition, 48 h
NCI-H460 lung = tested on: NCI-H460 lung
OVCAR-3 ovarian = tested on: OVCAR-3 ovarian
MDA-MB-435 = tested on: MDA-MB-435
HCT-116 colon = tested on: HCT-116 colon
UACC-257 melanoma = tested on: UACC-257 melanoma
EKVX NSCLC = tested on: EKVX NSCLC
HT29 colon = tested on: HT29 colon
NCI-H522 lung = tested on: NCI-H522 lung
SK-MEL-5 melanoma = tested on: SK-MEL-5 melanoma
MCF7 breast = tested on: MCF7 breast
SF-295 CNS = tested on: SF-295 CNS
NCI/ADR-RES ovarian = tested on: NCI/ADR-RES ovarian
HOP-92 NSCLC = tested on: HOP-92 NSCLC
DU-145 prostate = tested on: DU-145 prostate
SR leukemia = tested on: SR leukemia
NCI-H23 lung = tested on: NCI-H23 lung
MDA-MB-231 breast = tested on: MDA-MB-231 breast
OVCAR-8 ovarian = tested on: OVCAR-8 ovarian
T-47D breast = tested on: T-47D breast
HS 578T breast = tested on: HS 578T breast
PC-3 prostate = tested on: PC-3 prostate
786-0 renal = tested on: 786-0 renal
OVCAR-5 ovarian = tested on: OVCAR-5 ovarian
MDA-N = tested on: MDA-N
HOP-62 NSCLC = tested on: HOP-62 NSCLC
SNB-75 CNS = tested on: SNB-75 CNS
HL-60(TB) leukemia = tested on: HL-60(TB) leukemia
TK-10 renal = tested on: TK-10 renal
NCI-H226 lung = tested on: NCI-H226 lung
SK-MEL-2 melanoma = tested on: SK-MEL-2 melanoma
SF-268 CNS = tested on: SF-268 CNS
K-562 leukemia = tested on: K-562 leukemia
U251 CNS = tested on: U251 CNS
OVCAR-4 ovarian = tested on: OVCAR-4 ovarian
SW-620 colon = tested on: SW-620 colon
SN12C renal = tested on: SN12C renal
RPMI-8226 leukemia = tested on: RPMI-8226 leukemia
COLO 205 colon = tested on: COLO 205 colon
ACHN renal = tested on: ACHN renal
LOX IMVI melanoma = tested on: LOX IMVI melanoma
IGROV1 ovarian = tested on: IGROV1 ovarian
KM12 colon = tested on: KM12 colon
UO-31 renal = tested on: UO-31 renal
M14 melanoma = tested on: M14 melanoma
CAKI-1 renal = tested on: CAKI-1 renal
SK-MEL-28 melanoma = tested on: SK-MEL-28 melanoma
MOLT-4 leukemia = tested on: MOLT-4 leukemia
CCRF-CEM leukemia = tested on: CCRF-CEM leukemia
HCT-15 colon = tested on: HCT-15 colon
SF-539 CNS = tested on: SF-539 CNS
HCC-2998 colon = tested on: HCC-2998 colon
MALME-3M melanoma = tested on: MALME-3M melanoma
A549 NSCLC = tested on: A549 NSCLC
SNB-19 CNS = tested on: SNB-19 CNS
SK-OV-3 ovarian = tested on: SK-OV-3 ovarian
A498 renal = tested on: A498 renal
RXF 393 renal = tested on: RXF 393 renal

Measured: TGI

Cc1occc(=O)c1O
> 100 µM: NCI-H460 lung | OVCAR-3 ovarian | MDA-MB-435 | HCT-116 colon | UACC-257 melanoma | EKVX NSCLC | HT29 colon | NCI-H522 lung | SK-MEL-5 melanoma | MCF7 breast | SF-295 CNS | NCI/ADR-RES ovarian | HOP-92 NSCLC | DU-145 prostate | SR leukemia | NCI-H23 lung | OVCAR-8 ovarian | T-47D breast | HS 578T breast | PC-3 prostate | 786-0 renal | OVCAR-5 ovarian | MDA-N | HOP-62 NSCLC | SNB-75 CNS | HL-60(TB) leukemia | TK-10 renal | NCI-H226 lung | SK-MEL-2 melanoma | SF-268 CNS | K-562 leukemia | U251 CNS | OVCAR-4 ovarian | SW-620 colon | RPMI-8226 leukemia | COLO 205 colon | ACHN renal | LOX IMVI melanoma | IGROV1 ovarian | KM12 colon | UO-31 renal | M14 melanoma | CAKI-1 renal | SK-MEL-28 melanoma | MOLT-4 leukemia | CCRF-CEM leukemia | SF-539 CNS | HCC-2998 colon | MALME-3M melanoma | A549 NSCLC | SNB-19 CNS
16.4 µM: MDA-MB-231 breast
28.7 µM: HCT-15 colon
24.8 µM: SN12C renal

CCCCCCCCCCCC1=NCCN1
35.4 µM: COLO 205 colon
39 µM: HCC-2998 colon
43.2 µM: A498 renal
> 100 µM: NCI-H460 lung | OVCAR-3 ovarian | MDA-MB-435 | HCT-116 colon | UACC-257 melanoma | HT29 colon | SK-MEL-5 melanoma | MCF7 breast | SF-295 CNS | NCI/ADR-RES ovarian | HOP-92 NSCLC | DU-145 prostate | NCI-H23 lung | OVCAR-8 ovarian | T-47D breast | HS 578T breast | MDA-N | TK-10 renal | NCI-H226 lung | SF-268 CNS | K-562 leukemia | U251 CNS | SW-620 colon | SN12C renal | ACHN renal | KM12 colon | SK-OV-3 ovarian | M14 melanoma | SK-MEL-28 melanoma | A549 NSCLC | RXF 393 renal | SNB-19 CNS
32.7 µM: HCT-15 colon
44.1 µM: PC-3 prostate
22.9 µM: LOX IMVI melanoma
92.3 µM: SNB-75 CNS
75.4 µM: CCRF-CEM leukemia
38.7 µM: OVCAR-4 ovarian
95.1 µM: UO-31 renal
67.5 µM: NCI-H522 lung
60.5 µM: MOLT-4 leukemia
48 µM: SR leukemia
68.9 µM: MDA-MB-231 breast
